Source: paper PMC4657044, “Live detection and purification of cells based on the expression of a histone chaperone, HIRA, using a binding peptide” (Scientific Reports, 2015)
No end group written: not given here.

How the values were obtained:
HSC-4 cells [1] = assay: FACS of fixed HSC-4 cells with and without saponin permeabilization; assay type: cell-based, human; settings: fixed (4% PFA) HSC-4 cells, 10 μM FITC-labelled peptide, with or without 0.3% saponin, buffer with 1% FBS, 1 h at room temperature; FACS fluorescence
Method: (§1) TM2-FITC was used for FACS analyses with and without permeabilization of fixed HSC-4 cells using saponin. […] To check whether it can be used for live sorting, live HSC-4 cells were stained with the peptide and analyzed by FACS. […] The live uptake of TM2-FITC by HSC-4 monolayer cells was visualized under microscope immediately after washing off the staining solution (Fig. 2c).
(§2) FACS analysis was performed as reported previously. Monolayer cells were trypsinized and fixed using 4% PFA, and peptide labeled with FITC (10 μM) was added to the cells in presence or absence of 0.3% saponin in a buffer containing 1%FBS, and incubated for one hour at room temperature. For live sorting, the cells were resuspended in 75 μl of PBS containing the peptide for one hour. Cells were diluted with 200 μl of PBS and sorted immediately using FACS Aria II.

HIRA [2] = target: T1, HIRA (Mus musculus, UniProt Q61666); assay: Immunofluorescence of fixed and permeabilized wild type and Hira-/- W9.5 ES cells; assay type: cell-based; settings: fixed and permeabilized mouse W9.5 wild type versus Hira-/- ES cells; confocal microscopy
T1 construct: endogenous in cells; host or cells: mouse W9.5 ES cells (wild type)
Excerpt: (§3) One of the problems that could emerge in a peptide-based detection is its specificity. To confirm whether the peptide detects correct molecule, we performed a western blot using biotin-tagged peptide, a novel approach for showing specificity. TM2 was tagged with biotin and purified by size exclusion chromatography, and was used instead of primary antibody in western blot. The blot was developed with streptavidin-HRP and ECL to get a single band at 110 kDa, as observed in antibody-based detection (Fig. 1b). The peptide was tagged to FITC and was used for immunofluorescence in comparison with HIRA antibody. The staining pattern in fixed and permeabilized oral cancer cell line HSC-4 was similar in both TM2-FITC and HIRA antibody (Fig. 1c), confirming the specificity. To rule out nonspecific binding of peptide we selected HIRA-knock out cells. So, we analyzed the specificity using mouse W9.5 (wild type) and Hira^−/− W9.5 ES cells, reported earlier. Since we designed peptides using human sequence, and the cell line is of mouse origin we compared the sequence similarity of binding region of both HIRA and H2B across the two species. […] So we anticipated that the peptide will recognize mouse HIRA as well.
(§4) Monolayer cells seeded in micro slide chamber were fixed using 4% paraformadehyde (PFA), permeabilized with 0.3% Triton X-100/PBS (PBST) and blocked with 2% serum as described previously. […]

[3] = tested on: HSC-4 cells and Hira-/- ES cells; assay: Live sorting of a mixture of HSC-4 cells and Hira-/- ES cells; assay type: cell-based
Excerpt: Since TM2-FITC binds to its target in live cells without any permeabilizing agents, we sought the possibility of its use in live sorting. We tried to separate HIRA expressing cells from HIRA deficient cells using FACS. We took oral cancer cell line HSC-4, which expresses HIRA, and mixed with Hira^−/− ES cells in 2.5:1 ratio. […] These cells were sorted out as positive and negative populations with gates P2 and P3 and were allowed to grow for 5 days in 8-well chamber slide. The DIC images confirm that the positive population was HSC-4 keratinocytes and the negative population was ES cells (Fig. 3b). Again wild type ES cells and Hira^−/− ES cells were mixed in 1:1 ratio and sorted as mentioned before. […] These cells grown in slide chambers were stained with antibodies for HIRA and an epithelial marker, CD44. […] The cross contamination in P3 population for the mixture of null and wild type ES cells was <4%. Since 5 days of growth in ES culture medium might give a selection advantage for ES cells over the contaminating keratinocytes, another FACS was performed to check the false positivity and negativity. HSC-4 cells and Hira^−/− ES cells were stained alone or in mixture with the TM2-FITC and CD44-PE and analyzed by FACS. […] The positive population was analyzed for possible cross contamination for ES cells as shown by CD44 negativity. […]

[4] = tested on: wild type ES cells and Hira-/- ES cells; assay: Live sorting of a mixture of wild type and Hira-/- ES cells; assay type: cell-based, mouse
Excerpt: (§5) Since TM2-FITC binds to its target in live cells without any permeabilizing agents, we sought the possibility of its use in live sorting. We tried to separate HIRA expressing cells from HIRA deficient cells using FACS. We took oral cancer cell line HSC-4, which expresses HIRA, and mixed with Hira^−/− ES cells in 2.5:1 ratio. […] These cells were sorted out as positive and negative populations with gates P2 and P3 and were allowed to grow for 5 days in 8-well chamber slide. The DIC images confirm that the positive population was HSC-4 keratinocytes and the negative population was ES cells (Fig. 3b). Again wild type ES cells and Hira^−/− ES cells were mixed in 1:1 ratio and sorted as mentioned before. […] These cells grown in slide chambers were stained with antibodies for HIRA and an epithelial marker, CD44. […] The cross contamination in P3 population for the mixture of null and wild type ES cells was <4%. Since 5 days of growth in ES culture medium might give a selection advantage for ES cells over the contaminating keratinocytes, another FACS was performed to check the false positivity and negativity. HSC-4 cells and Hira^−/− ES cells were stained alone or in mixture with the TM2-FITC and CD44-PE and analyzed by FACS. […] The false positivity that we observed in P4 population could be overcome by a stringent gating as we have done in Fig 3. To further ascertain the false positivity in sorting based on TM2-FITC, the mixture of two cell types were separated for HIRA a positivity as shown in Fig. 4d. The positive population was analyzed for possible cross contamination for ES cells as shown by CD44 negativity. […] Comparing the cost of peptide synthesis with antibody development, this method is more cost effective than conventional antibodies. In future, the strategy can be improved by modifications that increases the retention time of the peptide, to ensure more purity. We argue that this approach will have immense use in cell biology, developmental biology and clinical applications.
(§6) FACS analysis was performed as reported previously. […]

[5] = tested on: HSC-4 cells and Hira-/- ES cells; assay: FACS of live HSC-4 / Hira-/- ES cell mixture dual stained with TM2-FITC and CD44-PE; assay type: cell-based
Excerpt: as §5
Figure 4 Specificity of TM2-FITC live sorting. (a) The FACS profiles of live HSC-4 cells and ES cells alone or in a mixture stained with TM2-FITC and CD44-PE. The two populations in P2 and P4 gate were selected for CD44 positivity. (b) Sorted cells were further analyzed for HIRA positivity (c) The dual stained cells were separated for both FITC and PE. The positivity of different populations is marked. (d) The mixture of two cell types were separated for HIRA positivity and the P2 population was further analyzed for CD44 positivity.
as §6

HSC-4 cells [6] = assay: FACS of live HSC-4 cells stained with the peptide; assay type: cell-based, human
Method: as §1, §2

HIRA [7] = target: T2, HIRA (Homo sapiens, UniProt P54198); assay: Immunofluorescence of fixed and permeabilized HSC-4 cells; assay type: cell-based; settings: fixed (4% PFA) and permeabilized (0.3% Triton X-100) HSC-4 cells; overnight at 4 °C; confocal microscopy
T2 construct: We took oral cancer cell line HSC-4, which expresses HIRA; endogenous in cells; host or cells: HSC-4
Excerpt: as §3, §4

[8] = tested on: wild type and Hira-/- ES cells; assay: Live uptake by ES cells under the confocal microscope; assay type: cell-based, mouse; settings: live wild type and Hira-/- ES cells grown in confocal dishes, TM2-FITC; fluorescence microscopy
Excerpt: as §1
(a) The FACS profile of fixed HSC-4 cells stained with TM2-FITC. (b) Live cells were stained with the TM2-FITC as described under methods and analyzed in FACS Aria II. (c) HSC-4 cells were grown in confocal dishes and incubated with TM2-FITC diluted in PBS for 1 h. Prior to imaging the cells were briefly washed and imaged (d) ES cells were grown in confocal dishes and stained using TM2-FITC. Hoechst 33342 dye was used to visualize the nucleus. The scale bar represents 10 μm.

[9] = mixture of live HSC-4 and Hira-/- ES cells, TM2-FITC and CD44-PE, Fig. 4b

T2 sequence (P54198 whole entry): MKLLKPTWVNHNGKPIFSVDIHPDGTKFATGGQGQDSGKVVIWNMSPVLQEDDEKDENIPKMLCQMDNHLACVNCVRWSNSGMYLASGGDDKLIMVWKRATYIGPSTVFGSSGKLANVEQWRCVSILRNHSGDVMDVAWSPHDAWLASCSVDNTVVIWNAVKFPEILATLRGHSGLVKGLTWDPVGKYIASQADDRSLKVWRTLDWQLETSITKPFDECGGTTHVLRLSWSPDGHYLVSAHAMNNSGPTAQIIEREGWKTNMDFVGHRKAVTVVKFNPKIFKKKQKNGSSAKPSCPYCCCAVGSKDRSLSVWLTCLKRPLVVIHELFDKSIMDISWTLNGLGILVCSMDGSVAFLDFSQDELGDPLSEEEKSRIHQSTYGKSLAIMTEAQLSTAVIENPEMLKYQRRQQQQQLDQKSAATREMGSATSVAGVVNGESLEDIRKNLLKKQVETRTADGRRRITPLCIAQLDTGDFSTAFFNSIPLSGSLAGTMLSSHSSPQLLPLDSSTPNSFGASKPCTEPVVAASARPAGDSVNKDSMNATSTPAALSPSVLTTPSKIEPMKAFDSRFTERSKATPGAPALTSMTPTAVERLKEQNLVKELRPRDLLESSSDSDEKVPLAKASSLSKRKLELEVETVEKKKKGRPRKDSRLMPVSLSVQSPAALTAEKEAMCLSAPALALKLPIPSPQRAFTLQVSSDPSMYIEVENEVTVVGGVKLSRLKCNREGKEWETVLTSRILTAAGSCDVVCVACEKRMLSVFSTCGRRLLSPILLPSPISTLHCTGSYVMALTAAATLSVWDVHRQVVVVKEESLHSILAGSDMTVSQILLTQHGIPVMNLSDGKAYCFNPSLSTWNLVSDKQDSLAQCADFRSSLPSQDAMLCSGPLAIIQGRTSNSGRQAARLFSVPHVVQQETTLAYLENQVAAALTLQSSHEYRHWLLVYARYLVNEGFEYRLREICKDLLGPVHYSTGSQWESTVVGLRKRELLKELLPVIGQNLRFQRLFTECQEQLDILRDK
T1 sequence (Q61666 whole entry): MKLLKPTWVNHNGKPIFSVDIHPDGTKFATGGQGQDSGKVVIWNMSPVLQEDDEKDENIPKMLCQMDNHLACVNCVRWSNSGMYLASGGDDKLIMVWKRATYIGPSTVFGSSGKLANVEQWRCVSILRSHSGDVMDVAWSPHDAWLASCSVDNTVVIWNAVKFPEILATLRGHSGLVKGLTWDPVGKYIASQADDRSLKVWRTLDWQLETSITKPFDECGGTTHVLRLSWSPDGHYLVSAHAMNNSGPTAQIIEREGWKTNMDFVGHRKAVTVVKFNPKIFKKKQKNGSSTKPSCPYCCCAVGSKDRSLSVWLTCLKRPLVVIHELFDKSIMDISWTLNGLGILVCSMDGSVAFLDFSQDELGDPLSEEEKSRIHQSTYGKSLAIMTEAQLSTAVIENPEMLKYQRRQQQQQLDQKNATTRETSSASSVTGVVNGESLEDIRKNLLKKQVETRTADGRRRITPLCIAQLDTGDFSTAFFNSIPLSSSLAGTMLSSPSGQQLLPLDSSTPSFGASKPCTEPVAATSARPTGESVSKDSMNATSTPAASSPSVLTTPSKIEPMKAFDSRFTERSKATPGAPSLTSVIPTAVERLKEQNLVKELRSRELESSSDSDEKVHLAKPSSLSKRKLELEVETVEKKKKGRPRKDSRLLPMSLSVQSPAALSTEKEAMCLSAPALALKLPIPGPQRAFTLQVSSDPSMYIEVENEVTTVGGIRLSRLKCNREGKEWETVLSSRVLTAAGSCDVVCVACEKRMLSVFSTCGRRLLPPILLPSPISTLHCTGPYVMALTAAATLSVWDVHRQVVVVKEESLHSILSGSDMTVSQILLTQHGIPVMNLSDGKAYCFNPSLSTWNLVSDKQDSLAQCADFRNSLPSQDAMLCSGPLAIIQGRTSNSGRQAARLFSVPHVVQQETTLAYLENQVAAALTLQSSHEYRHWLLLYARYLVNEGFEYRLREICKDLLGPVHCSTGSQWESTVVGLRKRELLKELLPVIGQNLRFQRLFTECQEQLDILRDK

| staining of HIRA-/- ES cells (specificity) (HIRA [2]) | staining pattern compared with HIRA antibody (HIRA [7]) | Substance | cell permeability / internalization (HSC-4 cells [1]) | HIRA positive cells observed (gate P2) ([3]; live HSC-4 and Hira-/- ES cells mixed 2.5:1 (2.5x10^5 / 1x10^5), expected 71.4%, FACS) [%] | contamination of sorted P3 (negative) population by CD44+HIRA+ cells ([3]; sorted cells grown 5 days in 8-well chamber slide, stained with HIRA and CD44 antibodies) [%] | viability of sorted ES cells ([4]; cells sorted live with TM2-FITC, grown 5 days in 8-well chamber slide, DIC images) | observed ratio of positivity (gate P2) ([4]; live wild type ES and Hira-/- ES cells mixed 1:1 (1x10^5 / 1x10^5), expected 50%, FACS) [%] | cross contamination in sorted P3 (negative) population ([4]; mixture of null and wild type ES cells, sorted cells grown 5 days, stained with HIRA antibody) [%] | false positive ratio in dual staining ([5]; dual stained cells separated for both FITC and PE, Fig. 4c) [%] | HIRA positivity of CD44+ population (P2) [5, 9] [%] | false HIRA positivity of Hira-/- ES cells (CD44 negative, P4) [5, 9] [%] | false positive ratio (CD44 negative cells in the HIRA positive population) ([5]; mixture separated for HIRA positivity, P2 population analysed for CD44, Fig. 4d) [%] | signal after washing with peptide free solution (HSC-4 cells [6]; live HSC-4 cells stained with the peptide, FACS) | cells positive for HIRA (HSC-4 cells [6]; live HSC-4 cells, no permeabilization, peptide in 75 μl PBS for 1 h, diluted with 200 μl PBS, FACS Aria II) [%] | live uptake pattern in ES cells [8] |
| --- | --- | --- | --- | --- | --- | --- | --- | --- | --- | --- | --- | --- | --- | --- | --- |
|  |  | PKKGSKKAVTKAQKKDGA-NH2 [TM2] | cell permeable |  |  |  |  |  |  |  |  |  |  |  |  |
| absence of staining | similar | TM2-FITC: TM2 peptide tagged to FITC, used for immunofluorescence, FACS and live sorting (PKKGSKKAVTKAQKKDGA-NH2; also: FITC, site not given here) | internalized without permeabilization | 65.7 | < 1 | viable and formed colonies in 5 days | 49.6 | < 4 | 0.6 | 82 | 2.7 | 0.9 | loss of the signal | 85 | limited to the wild type ES cells |
